Assay results published in patent US11882828B2, “Mosquito vector control compositions, methods and products utilizing same” (priority 2015, dated 2024).

Columns and labels:
[1] = tested on: Aedes aegypti (Yellow fever mosquito); test: whole plant or invertebrate; conditions: Aedes aegypti
Description: […] Once the deposits were dry, five non-blood fed adult female Aedes aegypti (between two to five days old) were added to each well, and sustained with a 10% sucrose solution in a cotton wool plug. Assessment of the knockdown after 1 hour, and mortality after 48 hours was carried out.
(§1) In case of multiple tests, the mean value is reported.

[2] = tested on: Anopheles stephensi (Indian malaria mosquito); test: whole plant or invertebrate; conditions: Anopheles stephensi
Description: […] Once the deposits were dry, five non-blood fed adult female Anopheles stephensi (between two to five days old) were added to each well, and sustained with a 10% sucrose solution in a cotton wool plug. Assessment of the knockdown after 1 hour, and mortality after 48 hours was carried out.
as §1

Aedes aegypti [3] = test: whole plant or invertebrate; conditions: Aedes aegypti, 48 h
Summary of the method: (§2)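 Non-blood-fed adult females (2–5 days old), ten per well, were placed on dried ethanol deposits of the test compound at a defined concentration and fed 10% sucrose. Mortality was scored at 48 hours as the mean of two replicates.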

Anopheles stephensi [4] = test: whole plant or invertebrate; conditions: Anopheles stephensi, 48 h
Summary of the method: as §2

Ae. Aegypti New Orleans = test: Example B4: cross resistance study, 6-well plate; assay type: in vivo; conditions: for Knockdown: after 60 minutes, New Orleans
Description: (§3) In each study, a set of plates were infested with a known insecticide susceptible strain of mosquitoes from the same genera as the resistant strains.
(§4) Assessment of the knockdown after 60 minutes and mortality after 24 hours was carried out. Each treatment was replicated a minimum of four times, with the mean knockdown or mortality recorded.
(§5) A comparison of the knockdown and mortality of the resistant strain of mosquitoes was made to that of the susceptible to identify evidence of cross resistance.

Ae. aegypti Caymon = test: Example B4: cross resistance study, 6-well plate; assay type: in vivo; conditions: for Knockdown: after 60 minutes, Caymon
Description: as §3, §4, §5

An. Arabiensis Moz sus = test: Example B4: cross resistance study, 6-well plate; assay type: in vivo; conditions: for Knockdown: after 60 minutes, Moz sus
Description: as §3, §4, §5

An. Arabiensis Ndjamina = test: Example B4: cross resistance study, 6-well plate; assay type: in vivo
Description: as §3, §4, §5

An. Gambiae Kisumu rdl = test: Example B4: cross resistance study, 6-well plate; assay type: in vivo; conditions: for Knockdown: after 60 minutes, Kisumu rdl
Description: as §3, §4, §5

An. Gambiae Kisumu sus [5] = test: Example B4: cross resistance study, 6-well plate; assay type: in vivo; conditions: for Knockdown: after 60 minutes, Kisumu sus
Description: as §3, §4, §5

An. Gambiae Tiassalé [6] = test: Example B4: cross resistance study, 6-well plate; assay type: in vivo; conditions: for Knockdown: after 60 minutes, Tiassalé
Description: as §3, §4, §5

An. stephensi [7] = test: Example B4: cross resistance study, 6-well plate; assay type: in vivo; conditions: for Knockdown: after 60 minutes, An. stephensi
Description: as §3, §4, §5

An. Gambiae Kisumu sus [8] = test: Example B5: bottle based cross resistance study (CDC bottle assay); assay type: in vivo; conditions: for mortality at 20 ppm / mortality at 25 ppm: Anopheles gambiae; for mortality at 25 ppm: 24 h
Description: (§6) Based on the “CDC bottle assay” (described at http://www.cdc.gov/malaria/resources/pdf/fsp/ir_manual/ir_cdc_bioassay_en.pdf) 1 ml of ethanol containing a test compound at a defined concentration was added to a 250 ml glass bottle and the bottles were placed on a rolling table to coat the inner surfaces as the solvent evaporated. Once dry, twenty five non-blood fed adult female mosquitoes of the appropriate species and strains (each three day old) were aspirated from the stock culture and gently blown into the exposure bottles. The lid of the bottle was replaced and the bottle placed upright out of direct sun light under standard culture conditions, nominally 28C and 60-80% relative humidity.
(§7) A stopwatch was started, and the assessment of the knock-down were made after 15 minutes and 60 minutes. A mosquito was said to be knocked down if it was unable to stand, following the CDC definition. The bottles were replaced in an upright position when not being assessed.
(§8) After one hour the mosquitoes were carefully removed from the bottle with an aspirator and placed in a recovery cup. The mosquitoes were supplied with a 10% sucrose solution on a cotton wool bung, and stored under culture conditions. Assessments of the mortality were made after 24 hours.
(§9) Each treatment was replicated a minimum of four times, with the mean knockdown or mortality recorded. In each study, a set of bottles was infested with a known insecticide susceptible strain of mosquitoes from the same genera as the resistant strains.

An. Gambiae Tiassalé [9] = test: as above; assay type: in vivo; conditions: for Knockdown (%) at 15 mins / Knockdown (%) at 60 mins: 20 ppm, bottle, Tiassalé; for mortality at 20 ppm: Anopheles gambiae
Description: as §6, §7, §8, §9

An. stephensi [10] = test: as above; assay type: in vivo; conditions: for Knockdown (%) at 15 mins / Knockdown (%) at 60 mins: 20 ppm, bottle, An. stephensi; for mortality at 20 ppm: Anopheles stephensi
Description: as §6, §7, §8, §9

Aedes aegypti [11] = test: Example B7: evaluation of insecticide impregnated polymer surfaces; assay type: in vivo; conditions: AI content 2 wt %, polymer 4 to 6 weeks old; for knock-down: after one hour; for mortality: 24 hours after exposure
Excerpt: (§10) Preparation of polymeric sheets: Certain methoxyacrylate were Impregnated into three polymers: LDPE (low density polyethylene), HDPE (high density polyethylene) and PP (polypropylene) in different concentrations by mixing the respective polymer with a compound at high temperatures and the resultant polymeric material were then mould into thin discs or plaques.
(§11) Twenty four hours prior to the relevant assessment intervals, three to five day old non-blood fed adult mosquitoes were taken from the culture and lightly anaesthetised with carbon dioxide. Ten females were selected and placed in a 250 ml plastic cup, retained with a net lid, provided with a 10% sucrose solution soaked in a cotton wool bung and held under culturing environmental conditions.
(§12) After twenty four hours, impregnated polymer sheets (measuring about 150 mm in diameter and about 0.1 mm in thickness) were removed from storage and wrapped around the glazed side of an 11 cm ceramic tile and held in place with an elastic band. A cup of the pre-selected mosquitoes were again lightly anaesthetised with carbon dioxide and transferred from the holding cup to the base of a 9 cm plastic Petri dish. The relevant impregnated polymer sheet was placed over the Petri dish and held in place with an elastic band. Once the mosquitoes had recovered from the anaesthetic, ca. 1 minute, the impregnated polymer sheet was placed on a holding rack, such that treated side was at an angle of […] to the horizontal.
(§13) After one hour an assessment of mosquito knockdown was made. A mosquito was said to be knocked down if it was unable to right itself once it had fallen over. The mosquitoes were lightly anaesthetised again, and removed from the Petri dish exposure chamber and returned to the holding cups. The mosquitoes were supplied with a 10% sucrose solution soaked in a cotton wool bung and held under culturing environmental conditions. An assessment of mortality was made 24 hours after exposure. A mosquito was said to be dead if it is unable to right itself once it had fallen over.

Anopheles stephensi [12] = test: as above; assay type: in vivo; conditions: AI content 2 wt %; for knock-down: after one hour; for mortality: 24 hours after exposure
Excerpt: as §10, §11, §12, §13

FUMOZ = test: Example B5: bottle based cross resistance study (CDC bottle assay); assay type: in vivo; conditions: Anopheles funestus, 24 h, 25 ppm, after 24 hours, FUMOZ
Description: as §6, §7, §8, §9

VK7 = test: as above; assay type: in vivo; conditions: Anopheles coluzzii, 24 h, after 24 hours
Description: as §6, §7, §8, §9

CO/C=C(/C(=O)OC)c1ccccc1Oc1nnc(C(F)(F)F)s1 [Compound 6, Methyl (E)-3-methoxy-2-[2-[[5-(trifluoromethyl)-1,3,4-thiadiazol-2-yl]oxy]phenyl]-prop-2-enoate]
pest or weed control at 20 ppm ([1]; 1 h, read-out: Knockdown): 100% | mortality at 20 ppm ([1]; 48 h): 100% | pest or weed control at 20 ppm ([2]; 1 h, read-out: Knockdown): 100% | mortality at 20 ppm ([2]; 48 h): 100% | mortality at 5 ppm (Aedes aegypti [3]): 66% | mortality at 5 ppm (Anopheles stephensi [4]): 98% | Knockdown (Ae. Aegypti New Orleans; 2.00 ppm): 95% | mortality at 2 ppm (Ae. Aegypti New Orleans; Aedes aegypti, 24 h): 100% | Knockdown (Ae. aegypti Caymon; 2.00 ppm): 5% | mortality at 2 ppm (Ae. aegypti Caymon; Aedes aegypti, 24 h): 63% | Knockdown (An. Arabiensis Moz sus; 2.00 ppm): 90% | mortality at 2 ppm (An. Arabiensis Moz sus; Anopheles arabiensis, 24 h): 100% | Knockdown (An. Arabiensis Ndjamina; 2.00 ppm, after 60 minutes, Ndjamina): 100% | mortality at 2 ppm (An. Arabiensis Ndjamina; Anopheles arabiensis, 24 h): 100% | Knockdown (An. Gambiae Kisumu rdl; 2.00 ppm): 78% | mortality at 2 ppm (An. Gambiae Kisumu rdl; Anopheles gambiae, 24 h): 89% | Knockdown (An. Gambiae Kisumu sus [5]; 2.00 ppm): 86% | mortality at 2 ppm (An. Gambiae Kisumu sus [5]; Anopheles gambiae, 24 h): 100% | Knockdown (An. Gambiae Tiassalé [6]; 2.00 ppm): 84% | mortality at 2 ppm (An. Gambiae Tiassalé [6]; Anopheles gambiae, 24 h): 94% | Knockdown (An. stephensi [7]; 2.00 ppm): 100% | mortality at 2 ppm (An. stephensi [7]; Anopheles stephensi, 24 h): 100% | Knockdown (%) at 15 mins (An. Gambiae Kisumu sus [8]; 20 ppm, bottle, Kisumu sus): 100% | Knockdown (%) at 60 mins (An. Gambiae Kisumu sus [8]; 20 ppm, bottle, Kisumu sus): 100% | mortality at 20 ppm (An. Gambiae Kisumu sus [8]): 100% | Knockdown (%) at 15 mins (An. Gambiae Tiassalé [9]): 93% | Knockdown (%) at 60 mins (An. Gambiae Tiassalé [9]): 98% | mortality at 20 ppm (An. Gambiae Tiassalé [9]): 91% | Knockdown (%) at 15 mins (An. stephensi [10]): 83% | Knockdown (%) at 60 mins (An. stephensi [10]): 100% | mortality at 20 ppm (An. stephensi [10]): 100% | knock-down (Aedes aegypti [11]; HDPE): 87% | knock-down (Aedes aegypti [11]; LDPE): 100% | knock-down (Aedes aegypti [11]; PP): 83% | knock-down (Anopheles stephensi [12]; HDPE, polymer 4 to 6 weeks old): 87% | knock-down (Anopheles stephensi [12]; HDPE, polymer 6 to 8 weeks old): 100% | knock-down (Anopheles stephensi [12]; LDPE, polymer 4 to 6 weeks old): 97% | knock-down (Anopheles stephensi [12]; LDPE, polymer 6 to 8 weeks old): 100% | knock-down (Anopheles stephensi [12]; PP, polymer 4 to 6 weeks old): 100% | knock-down (Anopheles stephensi [12]; PP, polymer 6 to 8 weeks old): 90%

CC1(C)C(C=C(Cl)Cl)C1C(=O)OCc1cccc(Oc2ccccc2)c1 (stereo not drawn) [Permethrin, reference compound]
Knockdown (Ae. Aegypti New Orleans; 2.50 ppm): 91% | mortality at 2.5 ppm (Ae. Aegypti New Orleans; Aedes aegypti, 24 h): 100% | Knockdown (Ae. aegypti Caymon; 2.50 ppm): 0% | mortality at 2.5 ppm (Ae. aegypti Caymon; Aedes aegypti, 24 h): 45% | Knockdown (An. Arabiensis Moz sus; 2.50 ppm): 75% | mortality at 2.5 ppm (An. Arabiensis Moz sus; Anopheles arabiensis, 24 h): 100% | Knockdown (An. Gambiae Kisumu rdl; 2.50 ppm): 100% | mortality at 2.5 ppm (An. Gambiae Kisumu rdl; Anopheles gambiae, 24 h): 100% | Knockdown (An. Gambiae Kisumu sus [5]; 2.50 ppm): 100% | mortality at 2.5 ppm (An. Gambiae Kisumu sus [5]; Anopheles gambiae, 24 h): 100% | Knockdown (An. Gambiae Tiassalé [6]; 2.50 ppm): 5% | mortality at 2.5 ppm (An. Gambiae Tiassalé [6]; Anopheles gambiae, 24 h): 14% | Knockdown (An. stephensi [7]; 2.50 ppm): 85% | mortality at 2.5 ppm (An. stephensi [7]; Anopheles stephensi, 24 h): 100% | Knockdown (%) at 15 mins (An. Gambiae Kisumu sus [8]; 20 ppm, bottle, Kisumu sus): 100% | Knockdown (%) at 60 mins (An. Gambiae Kisumu sus [8]; 20 ppm, bottle, Kisumu sus): 100% | mortality at 20 ppm (An. Gambiae Kisumu sus [8]; 20 ppm, bottle, one hour exposure, after 24 hours, Kisumu sus): 100% | mortality at 25 ppm (An. Gambiae Kisumu sus [8]; Table B5b, after 24 hours, Kisumu sus): 99% | mortality at 25 ppm (An. Gambiae Kisumu sus [8]; Table B5c, after 24 hours, Kisumu sus): 100% | Knockdown (%) at 15 mins (An. Gambiae Tiassalé [9]): 50% | Knockdown (%) at 60 mins (An. Gambiae Tiassalé [9]): 99% | mortality at 20 ppm (An. Gambiae Tiassalé [9]): 85% | Knockdown (%) at 15 mins (An. stephensi [10]): 97% | Knockdown (%) at 60 mins (An. stephensi [10]): 100% | mortality at 20 ppm (An. stephensi [10]): 100% | mortality at 25 ppm (FUMOZ; Table B5b): 24% | mortality at 25 ppm (FUMOZ; Table B5c): 46% | mortality at 25 ppm (VK7; Table B5b): 3% | mortality at 25 ppm (VK7; Table B5c): 4% | mortality (Aedes aegypti [11]; HDPE): 97% | knock-down (Aedes aegypti [11]; HDPE): 100% | mortality (Aedes aegypti [11]; LDPE): 100% | knock-down (Aedes aegypti [11]; LDPE): 100% | mortality (Aedes aegypti [11]; PP): 80% | knock-down (Aedes aegypti [11]; PP): 87% | mortality (Anopheles stephensi [12]; HDPE, polymer 4 to 6 weeks old): 70% | knock-down (Anopheles stephensi [12]; HDPE, polymer 4 to 6 weeks old): 100% | mortality (Anopheles stephensi [12]; HDPE, polymer 6 to 8 weeks old): 97% | knock-down (Anopheles stephensi [12]; HDPE, polymer 6 to 8 weeks old): 100% | mortality (Anopheles stephensi [12]; LDPE, polymer 4 to 6 weeks old): 100% | knock-down (Anopheles stephensi [12]; LDPE, polymer 4 to 6 weeks old): 100% | mortality (Anopheles stephensi [12]; LDPE, polymer 6 to 8 weeks old): 100% | knock-down (Anopheles stephensi [12]; LDPE, polymer 6 to 8 weeks old): 100% | mortality (Anopheles stephensi [12]; PP, polymer 4 to 6 weeks old): 23% | knock-down (Anopheles stephensi [12]; PP, polymer 4 to 6 weeks old): 100% | mortality (Anopheles stephensi [12]; PP, polymer 6 to 8 weeks old): 67% | knock-down (Anopheles stephensi [12]; PP, polymer 6 to 8 weeks old): 100%
